Experimental findings from ChEMBL document CHEMBL1133402, “Irreversible inhibition of type I dehydroquinase by substrates for type II dehydroquinase” (Bioorg Med Chem Lett, 2000) are described below.

Activity calls are given as the source filed them. The rule behind the calls is not given here.

The target of experiment [1] is T1, 3-dehydroquinate dehydratase (Escherichia coli K-12) (UniProt P05194).
T1 sequence (whole entry): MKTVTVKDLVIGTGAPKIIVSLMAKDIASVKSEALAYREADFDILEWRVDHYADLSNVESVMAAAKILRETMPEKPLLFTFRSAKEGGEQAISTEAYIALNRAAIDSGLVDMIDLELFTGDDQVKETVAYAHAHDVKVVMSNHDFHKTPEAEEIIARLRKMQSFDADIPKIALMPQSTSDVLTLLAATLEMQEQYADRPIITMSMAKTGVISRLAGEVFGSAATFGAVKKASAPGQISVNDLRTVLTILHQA
Briefly: Tested for inhibitory activity against type I dehydroquinase; active.

Experiment [2] has as its target T1, 3-dehydroquinate dehydratase (Escherichia coli K-12). As to the kind of experiment: Tested for percent inactivation against dehydroquinase after 24 hr at 10 mM.
For experiment [3] the target is unchanged. As to the kind of experiment: kcat/Km value was determined.
The target of experiment [4] is T2, 3-dehydroquinate dehydratase (Escherichia coli K-12, UniProt P05194).
T2 sequence (P05194 whole entry): T1 sequence (whole entry)
Briefly: Tested for the binding affinity against dehydroquinase.

Consider `O=C1C(O)C(O)CC(O)(C(=O)O)C1Br` (centres undefined), for which the outcome in experiment [1] was Active. The same compound had an Inactivation in experiment [2] of 70%. In experiment [3], this compound gave a k cat/Km of 367000 M⁻¹ s⁻¹. This compound also yielded a Ki in experiment [4] of 3.7 mM.
As for `O=C(O)C1=C(Br)C(=O)[C@@H](O)[C@H](O)C1`, the result in experiment [1] was Active.
For `O=C1C(O)C(O)CC(O)(C(=O)O)C1F` (centres undefined), the outcome in experiment [1] was Active. Further, the Inactivation in experiment [2] was 45%. For the same compound, the k cat/Km in experiment [3] was 86000 M⁻¹ s⁻¹. In experiment [4], the Ki was 0.08 mM.

The term Ki denotes the dissociation constant of the complex between target and ligand, obtained from inhibition or displacement.
